Assay results reported in patent US20260209234A1, “SUBSTITUTED DIHYDROPYRROLO[3,4-D]PYRIMIDINE COMPOUNDS AND THEIR USE IN TREATING MEDICAL CONDITIONS” (Karuna Therapeutics, Inc., priority 2022, published 2026).

Experiments:
[1] = molecular target: T1, human M4 receptor (Homo sapiens, UniProt P08173); assay: M4 GTPγS PAM assay; format: biochemical; settings: membranes of CHO-K1 cells stably expressing human M4; EC20 acetylcholine 40 nM; 35S-GTP
T1 construct: expressed in transfected cells
T1 sequence (P08173 1-479): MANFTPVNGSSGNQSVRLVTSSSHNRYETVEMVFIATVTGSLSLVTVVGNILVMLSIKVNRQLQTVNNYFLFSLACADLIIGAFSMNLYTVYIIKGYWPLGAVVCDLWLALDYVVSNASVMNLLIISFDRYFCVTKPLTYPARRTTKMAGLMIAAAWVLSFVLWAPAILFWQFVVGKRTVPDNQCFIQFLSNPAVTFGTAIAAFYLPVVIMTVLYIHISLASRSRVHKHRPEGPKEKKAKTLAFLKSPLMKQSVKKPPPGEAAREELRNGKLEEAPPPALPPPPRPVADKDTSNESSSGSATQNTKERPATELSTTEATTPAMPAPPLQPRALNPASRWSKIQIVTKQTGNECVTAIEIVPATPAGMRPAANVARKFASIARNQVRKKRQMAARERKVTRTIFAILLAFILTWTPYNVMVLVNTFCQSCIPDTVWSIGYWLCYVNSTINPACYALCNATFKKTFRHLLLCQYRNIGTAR
Procedure, shortened: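 CHO-K1 membranes stably expressing human M4, preincubated with compound and 0.1 μM GDP (final) in 20 mM HEPES, 10 mM MgCl2, 100 mM NaCl, pH 7.4, then EC20 acetylcholine (40 nM final). 35S-GTPγS binding 1 h at room temperature, filtration and scintillation counting.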

[2] = molecular target: T2, hM4 receptors (Homo sapiens, UniProt P08173); assay: Human M4 PAM pERK assay; format: cell-based; settings: CHO cells expressing hM4; EC20 of acetylcholine (10 nM final); TR-FRET
T2 construct: expressed in transfected cells; host or cells: CHO cells
T2 sequence (P08173 1-479): T1 sequence (P08173 1-479)

[3] = molecular target: T3, rM4 receptors (Rattus norvegicus, UniProt P08485); assay: Rat M4 PAM pERK assay; format: cell-based; settings: CHO cells expressing rM4; EC20 of acetylcholine (10 nM final); TR-FRET
T3 construct: expressed in transfected cells; host or cells: CHO cells
T3 sequence (P08485 1-478): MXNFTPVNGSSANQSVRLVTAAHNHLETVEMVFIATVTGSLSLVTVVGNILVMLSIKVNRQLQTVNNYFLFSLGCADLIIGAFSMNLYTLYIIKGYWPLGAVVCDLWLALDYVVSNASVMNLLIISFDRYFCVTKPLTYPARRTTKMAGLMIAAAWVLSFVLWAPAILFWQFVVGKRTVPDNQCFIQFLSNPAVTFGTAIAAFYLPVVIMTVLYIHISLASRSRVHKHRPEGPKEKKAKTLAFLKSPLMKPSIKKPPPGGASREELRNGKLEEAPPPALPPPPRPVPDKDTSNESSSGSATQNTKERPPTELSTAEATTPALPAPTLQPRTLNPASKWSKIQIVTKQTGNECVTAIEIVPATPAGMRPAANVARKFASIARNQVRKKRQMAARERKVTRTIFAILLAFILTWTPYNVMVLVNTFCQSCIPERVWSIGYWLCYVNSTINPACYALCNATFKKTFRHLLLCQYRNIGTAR

EC50 [1] [µM]	EC50 [2] [µM]	EC50 [3] [µM]	Structure (SMILES)
≥ 2	≥ 2	≥ 2	COc1nc2c(c(OC)n1)C(C)N(C(=O)CC1CN(c3ccc(C#N)cc3)C1)C2 (single isomer, unassigned) [Compound I-65, 4-(3-(2-(2,4-dimethoxy-5-methyl-5,7-dihydro-6H-pyrrolo[3,4-d]pyrimidin-6-yl)-2-oxoethyl)azetidin-1-yl)benzonitrile]
0.5 to 2	≤ 0.1	0.1 to 0.5	COc1nc2c(c(OC)n1)C(C)N(C(=O)CC1CN(c3ccc(C#N)cc3)C1)C2 (single isomer, unassigned) [Compound I-66, 4-(3-(2-(2,4-dimethoxy-5-methyl-5,7-dihydro-6H-pyrrolo[3,4-d]pyrimidin-6-yl)-2-oxoethyl)azetidin-1-yl)benzonitrile]
≤ 0.1	0.1 to 0.5	0.1 to 0.5	COc1nc2c(c(OC)n1)C(C)N(C(=O)CC1CN(c3ccnc(C(F)(F)F)c3)C1)C2 (single isomer, unassigned) [Compound I-68, 1-(2,4-Dimethoxy-5-methyl-5,7-dihydro-6H-pyrrolo[3,4-d]pyrimidin-6-yl)-2-(1-(2-(trifluoromethyl)pyridin-4-yl)azetidin-3-yl)ethan-1-one]
≥ 2	≥ 2	≥ 2	COc1nc2c(c(OC)n1)C(C)N(C(=O)CC1CN(c3ccnc(C(F)(F)F)c3)C1)C2 (single isomer, unassigned) [Compound I-69, 1-(2,4-Dimethoxy-5-methyl-5,7-dihydro-6H-pyrrolo[3,4-d]pyrimidin-6-yl)-2-(1-(2-(trifluoromethyl)pyridin-4-yl)azetidin-3-yl)ethan-1-one]
≤ 0.1	0.5 to 2	≥ 2	COc1nc(OC)c2c(n1)C(C)N(C(=O)CC1CN(c3ccnc(C(F)(F)F)c3)C1)C2 (single isomer, unassigned) [Compound I-70, 1-(2,4-Dimethoxy-7-methyl-5,7-dihydro-6H-pyrrolo[3,4-d]pyrimidin-6-yl)-2-(1-(2-(trifluoromethyl)pyridin-4-yl)azetidin-3-yl)ethan-1-one]
0.5 to 2	0.5 to 2	≥ 2	COc1nc(OC)c2c(n1)C(C)N(C(=O)CC1CN(c3ccnc(C(F)(F)F)c3)C1)C2 (single isomer, unassigned) [Compound I-71, 1-(2,4-Dimethoxy-7-methyl-5,7-dihydro-6H-pyrrolo[3,4-d]pyrimidin-6-yl)-2-(1-(2-(trifluoromethyl)pyridin-4-yl)azetidin-3-yl)ethan-1-one]
≤ 0.1	0.1 to 0.5	0.5 to 2	COc1nc(Cl)nc2c1CN(C(=O)CC1CN(c3ccnc(C(F)(F)F)c3)C1)C2 [Compound I-1, 1-(2-Chloro-4-methoxy-5,7-dihydro-6H-pyrrolo[3,4-d]pyrimidin-6-yl)-2-(1-(2-(trifluoromethyl)pyridin-4-yl)azetidin-3-yl)ethan-1-one]
≤ 0.1	≤ 0.1	0.5 to 2	COc1nc(C#N)nc2c1CN(C(=O)CC1CN(c3ccnc(C(F)(F)F)c3)C1)C2 [Compound I-2, 4-Methoxy-6-(2-(1-(2-(trifluoromethyl)pyridin-4-yl)azetidin-3-yl)acetyl)-6,7-dihydro-5H-pyrrolo[3,4-d]pyrimidine-2-carbonitrile]
≥ 2	0.1 to 0.5	≥ 2	COc1cc(N2CC(CC(=O)N3Cc4nc(C#N)nc(OC)c4C3C)C2)cc(C(F)(F)F)n1 (stereo not drawn) [Compound I-31, 4-Methoxy-6-(2-(1-(2-methoxy-6-(trifluoromethyl)pyridin-4-yl)azetidin-3-yl)acetyl)-5-methyl-6,7-dihydro-5H-pyrrolo[3,4-d]pyrimidine-2-carbonitrile]
0.1 to 0.5	0.1 to 0.5	0.5 to 2	COc1nc(C)nc2c1CN(C(=O)CC1CN(c3ccnc(C(F)(F)F)c3)C1)C2 [Compound I-43, 1-(4-Methoxy-2-methyl-5,7-dihydro-6H-pyrrolo[3,4-d]pyrimidin-6-yl)-2-(1-(2-(trifluoromethyl)pyridin-4-yl)azetidin-3-yl)ethan-1-one]
≥ 2	≥ 2	0.5 to 2	COc1nc(C)nc2c1CN(C(=O)CC1CN(c3ccc(C(F)(F)F)nc3)C1)C2 [Compound I-44, 1-(4-Methoxy-2-methyl-5,7-dihydro-6H-pyrrolo[3,4-d]pyrimidin-6-yl)-2-(1-(6-(trifluoromethyl)pyridin-3-yl)azetidin-3-yl)ethan-1-one]
≥ 2	0.1 to 0.5	0.5 to 2	COc1nc(C)nc2c1CN(C(=O)CC1CN(c3ncns3)C1)C2 [Compound I-45, 2-(1-(1,2,4-Thiadiazol-5-yl)azetidin-3-yl)-1-(4-methoxy-2-methyl-5,7-dihydro-6H-pyrrolo[3,4-d]pyrimidin-6-yl)ethan-1-one]
0.5 to 2	0.5 to 2	≥ 2	CCOc1nc(C)nc2c1CN(C(=O)CC1CN(c3ccnc(C(F)(F)F)c3)C1)C2 [Compound I-46, 1-(4-Ethoxy-2-methyl-5,7-dihydro-6H-pyrrolo[3,4-d]pyrimidin-6-yl)-2-(1-(2-(trifluoromethyl)pyridin-4-yl)azetidin-3-yl)ethan-1-one]
≥ 2	≥ 2	≥ 2	Cc1nc2c(c(OC(C)C)n1)CN(C(=O)CC1CN(c3ccnc(C(F)(F)F)c3)C1)C2 [Compound I-47, 1-(4-Isopropoxy-2-methyl-5,7-dihydro-6H-pyrrolo[3,4-d]pyrimidin-6-yl)-2-(1-(2-(trifluoromethyl)pyridin-4-yl)azetidin-3-yl)ethan-1-one]
≥ 2	0.5 to 2	≥ 2	Cc1nc2c(c(OC3CC3)n1)CN(C(=O)CC1CN(c3cccnc3)C1)C2 [Compound I-48, 1-(4-Cyclopropoxy-2-methyl-5,7-dihydro-6H-pyrrolo[3,4-d]pyrimidin-6-yl)-2-(1-(pyridin-3-yl)azetidin-3-yl)ethan-1-one]
≥ 2	≥ 2	≥ 2	Cc1nc2c(c(OCC3CC3)n1)CN(C(=O)CC1CN(c3ccnc(C(F)(F)F)c3)C1)C2 [Compound I-50, 1-(4-(Cyclopropylmethoxy)-2-methyl-5,7-dihydro-6H-pyrrolo[3,4-d]pyrimidin-6-yl)-2-(1-(2-(trifluoromethyl)pyridin-4-yl)azetidin-3-yl)ethan-1-one]
0.5 to 2	0.1 to 0.5	≥ 2	COc1nc2c(c(OC)n1)CN(C(=O)CC1CN(c3ccnc(C(F)(F)F)c3)C1)C2 [Compound I-64, 1-(2,4-Dimethoxy-5,7-dihydro-6H-pyrrolo[3,4-d]pyrimidin-6-yl)-2-(1-(2-(trifluoromethyl)pyridin-4-yl)azetidin-3-yl)ethan-1-one]
≥ 2	≥ 2	≥ 2	COc1nc2c(c(C3CCC3)n1)CN(C(=O)CC1CN(c3ccnc(C(F)(F)F)c3)C1)C2 [Compound I-74, 1-(4-Cyclobutyl-2-methoxy-5,7-dihydro-6H-pyrrolo[3,4-d]pyrimidin-6-yl)-2-(1-(2-(trifluoromethyl)pyridin-4-yl)azetidin-3-yl)ethan-1-one]
0.1 to 0.5	0.1 to 0.5	≥ 2	COc1nc(C)c2c(n1)CN(C(=O)CC1CN(c3ccnc(C(F)(F)F)c3)C1)C2 [Compound I-75, 1-(2-Methoxy-4-methyl-5,7-dihydro-6H-pyrrolo[3,4-d]pyrimidin-6-yl)-2-(1-(2-(trifluoromethyl)pyridin-4-yl)azetidin-3-yl)ethan-1-one]
≥ 2	≥ 2	≥ 2	COc1nc2c(c(OC(F)F)n1)CN(C(=O)CC1CN(c3cccnc3)C1)C2 [Compound I-76, 1-(4-(Difluoromethoxy)-2-methoxy-5,7-dihydro-6H-pyrrolo[3,4-d]pyrimidin-6-yl)-2-(1-(pyridin-3-yl)azetidin-3-yl)ethan-1-one]
0.1 to 0.5	0.5 to 2	0.5 to 2	COc1nc(C2CC2)nc2c1CN(C(=O)CC1CN(c3ccnc(C(F)(F)F)c3)C1)C2 [Compound I-79, 1-(2-Cyclopropyl-4-methoxy-5,7-dihydro-6H-pyrrolo[3,4-d]pyrimidin-6-yl)-2-(1-(2-(trifluoromethyl)pyridin-4-yl)azetidin-3-yl)ethan-1-one]
